These are literature values, as cited in publication PMC9851200, “Multiparameter phenotypic screening for endogenous TFEB and TFE3 translocation identifies novel chemical series modulating lysosome function” (Autophagy, 2022).

What all share (set-up): method as in original PKIS2 published data
Data set [1] concerns the target T1, kinases (KINOMEscan panel) (Homo sapiens, UniProt P20794).
T1 sequence (P20794 1-623): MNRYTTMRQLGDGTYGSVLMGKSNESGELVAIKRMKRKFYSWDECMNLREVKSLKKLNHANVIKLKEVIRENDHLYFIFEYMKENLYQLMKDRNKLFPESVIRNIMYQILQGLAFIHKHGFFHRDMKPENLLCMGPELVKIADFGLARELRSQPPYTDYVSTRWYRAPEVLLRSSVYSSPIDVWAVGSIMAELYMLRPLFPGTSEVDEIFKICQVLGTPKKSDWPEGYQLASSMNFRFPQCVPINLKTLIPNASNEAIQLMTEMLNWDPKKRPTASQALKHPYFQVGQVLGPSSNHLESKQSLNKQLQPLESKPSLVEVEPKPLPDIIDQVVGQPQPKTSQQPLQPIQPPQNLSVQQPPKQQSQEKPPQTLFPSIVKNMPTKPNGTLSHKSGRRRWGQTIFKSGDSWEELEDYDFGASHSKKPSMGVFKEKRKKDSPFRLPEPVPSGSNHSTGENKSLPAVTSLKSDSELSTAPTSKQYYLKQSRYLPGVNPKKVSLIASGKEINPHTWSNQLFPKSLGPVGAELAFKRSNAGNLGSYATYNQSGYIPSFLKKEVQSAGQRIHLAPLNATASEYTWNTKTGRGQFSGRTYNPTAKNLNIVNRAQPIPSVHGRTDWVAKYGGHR
The settings on record: Published KINOMEscan; ref original PKIS2 published data; cited from earlier work.

In data set [2] the target is T2, kinases (KINOMEscan panel) (Homo sapiens, UniProt Q16832).
T2 sequence (Q16832 22-855): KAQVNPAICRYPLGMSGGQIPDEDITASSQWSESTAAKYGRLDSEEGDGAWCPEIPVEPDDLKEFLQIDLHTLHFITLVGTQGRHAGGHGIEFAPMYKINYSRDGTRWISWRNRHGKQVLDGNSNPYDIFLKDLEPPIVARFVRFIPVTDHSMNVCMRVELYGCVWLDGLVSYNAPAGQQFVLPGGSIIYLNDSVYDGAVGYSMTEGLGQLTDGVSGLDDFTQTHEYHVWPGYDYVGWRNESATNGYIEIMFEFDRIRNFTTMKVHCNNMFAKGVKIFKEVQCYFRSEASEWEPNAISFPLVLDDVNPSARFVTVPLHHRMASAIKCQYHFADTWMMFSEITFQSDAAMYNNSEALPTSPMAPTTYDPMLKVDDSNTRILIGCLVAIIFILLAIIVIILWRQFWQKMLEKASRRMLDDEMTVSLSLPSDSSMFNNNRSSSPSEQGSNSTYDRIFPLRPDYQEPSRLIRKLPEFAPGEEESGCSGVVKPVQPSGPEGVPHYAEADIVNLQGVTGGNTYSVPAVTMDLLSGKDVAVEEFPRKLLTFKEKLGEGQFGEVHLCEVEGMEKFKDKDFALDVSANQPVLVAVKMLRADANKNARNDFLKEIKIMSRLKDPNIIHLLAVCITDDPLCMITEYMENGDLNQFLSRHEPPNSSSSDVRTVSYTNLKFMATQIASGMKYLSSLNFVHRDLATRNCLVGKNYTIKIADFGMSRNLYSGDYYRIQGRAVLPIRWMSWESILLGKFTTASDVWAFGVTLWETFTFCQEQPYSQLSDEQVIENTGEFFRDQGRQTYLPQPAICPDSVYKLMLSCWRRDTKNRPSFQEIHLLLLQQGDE
The settings on record: DDR2; Published KINOMEscan; ref original PKIS2 published data; cited from earlier work.

In data set [3] the target is T3, kinases (KINOMEscan panel) (Homo sapiens, UniProt Q96BR1).
T3 sequence (Q96BR1 1-496): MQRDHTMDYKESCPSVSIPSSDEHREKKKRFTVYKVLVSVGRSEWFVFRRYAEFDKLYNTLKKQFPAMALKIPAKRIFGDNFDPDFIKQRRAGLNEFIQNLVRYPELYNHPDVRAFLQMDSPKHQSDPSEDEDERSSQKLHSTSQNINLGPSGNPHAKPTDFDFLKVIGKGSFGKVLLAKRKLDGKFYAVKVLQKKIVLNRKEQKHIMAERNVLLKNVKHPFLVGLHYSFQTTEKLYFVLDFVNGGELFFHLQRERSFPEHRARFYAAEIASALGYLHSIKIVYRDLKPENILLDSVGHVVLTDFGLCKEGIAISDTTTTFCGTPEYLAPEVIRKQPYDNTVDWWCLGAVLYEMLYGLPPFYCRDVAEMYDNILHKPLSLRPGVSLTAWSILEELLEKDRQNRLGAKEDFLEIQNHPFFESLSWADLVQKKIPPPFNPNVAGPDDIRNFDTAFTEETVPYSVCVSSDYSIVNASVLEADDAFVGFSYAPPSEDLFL
The settings on record: kinase SGK3; Published KINOMEscan; ref original PKIS2 published data; cited from earlier work.

Data set [4] concerns the target kinases (KINOMEscan panel) (Homo sapiens, UniProt Q99558). The note with it: kinase MAP3K14; Published KINOMEscan; ref original PKIS2 published data; cited from earlier work.

Structures are written as SMILES.

kinases (KINOMEscan panel) (Homo sapiens, UniProt Q99558), sequence (Q99558 whole entry): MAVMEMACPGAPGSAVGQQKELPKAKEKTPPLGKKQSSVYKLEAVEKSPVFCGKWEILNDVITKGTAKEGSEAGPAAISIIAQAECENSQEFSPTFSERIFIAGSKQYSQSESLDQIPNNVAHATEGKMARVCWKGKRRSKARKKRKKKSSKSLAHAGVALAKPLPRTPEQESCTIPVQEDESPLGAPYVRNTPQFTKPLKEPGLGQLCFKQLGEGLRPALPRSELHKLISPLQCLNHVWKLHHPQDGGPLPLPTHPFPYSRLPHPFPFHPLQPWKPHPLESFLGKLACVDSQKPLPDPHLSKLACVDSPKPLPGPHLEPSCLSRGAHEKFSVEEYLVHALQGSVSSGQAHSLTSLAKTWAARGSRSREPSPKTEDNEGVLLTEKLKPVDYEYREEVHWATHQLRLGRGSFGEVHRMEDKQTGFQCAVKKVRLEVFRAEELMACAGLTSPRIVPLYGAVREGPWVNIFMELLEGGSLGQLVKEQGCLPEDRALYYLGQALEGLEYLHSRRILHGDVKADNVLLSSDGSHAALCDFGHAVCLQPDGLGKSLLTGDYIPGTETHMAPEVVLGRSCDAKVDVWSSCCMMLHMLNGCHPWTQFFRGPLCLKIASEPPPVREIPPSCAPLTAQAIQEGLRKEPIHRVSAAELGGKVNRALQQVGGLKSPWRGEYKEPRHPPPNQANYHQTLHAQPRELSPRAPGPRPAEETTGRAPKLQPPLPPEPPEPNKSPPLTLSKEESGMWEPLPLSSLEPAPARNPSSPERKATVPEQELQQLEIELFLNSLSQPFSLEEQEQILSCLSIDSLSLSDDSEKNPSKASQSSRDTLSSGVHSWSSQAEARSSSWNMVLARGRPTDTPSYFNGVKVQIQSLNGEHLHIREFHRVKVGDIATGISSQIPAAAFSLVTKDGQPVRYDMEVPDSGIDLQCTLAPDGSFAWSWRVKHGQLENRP

As for `Cc1cccc(-c2nc(Nc3ccncc3)c3ccccc3n2)n1` [NK215], the “KINOMEscan MAK” value in data set [1] is reported as 0. The “KINOMEscan DDR2” value in data set [2] is recorded as 45. Besides, the “KINOMEscan SGK3” value in data set [3] is reported as 0. Besides, in data set [4], the “KINOMEscan MAP3K14” value is given as 0.
